pIC50: −log10 of the molar value.
Target: T1, IKKε (Homo sapiens, UniProt Q14164)
T1 construct: His-tag; made in house; host or cells: Sf9 insect cells
T1 sequence (Q14164 1-716): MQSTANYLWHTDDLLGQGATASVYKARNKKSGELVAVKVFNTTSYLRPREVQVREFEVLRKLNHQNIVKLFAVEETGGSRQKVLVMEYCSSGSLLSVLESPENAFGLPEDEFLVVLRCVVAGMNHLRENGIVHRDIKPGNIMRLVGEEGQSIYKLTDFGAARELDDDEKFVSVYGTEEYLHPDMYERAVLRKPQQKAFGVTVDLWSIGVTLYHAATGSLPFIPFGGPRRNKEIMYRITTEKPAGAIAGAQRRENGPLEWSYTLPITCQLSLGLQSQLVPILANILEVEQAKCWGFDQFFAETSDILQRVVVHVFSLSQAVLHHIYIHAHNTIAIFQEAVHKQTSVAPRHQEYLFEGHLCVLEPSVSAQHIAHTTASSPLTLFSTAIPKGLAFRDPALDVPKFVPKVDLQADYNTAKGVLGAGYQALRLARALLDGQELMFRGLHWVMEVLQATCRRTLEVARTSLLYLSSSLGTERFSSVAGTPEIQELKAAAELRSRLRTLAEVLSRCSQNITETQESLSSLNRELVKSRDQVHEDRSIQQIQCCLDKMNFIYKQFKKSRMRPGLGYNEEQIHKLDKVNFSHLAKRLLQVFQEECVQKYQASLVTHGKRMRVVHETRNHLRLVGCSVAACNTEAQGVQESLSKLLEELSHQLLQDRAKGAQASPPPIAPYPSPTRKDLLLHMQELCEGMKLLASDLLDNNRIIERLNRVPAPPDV
Test: In-vitro IKKε kinase assay ([γ33]ATP filter-plate)
Format: biochemical
Details: text bins; read-out: IC50 for inhibition of the kinase activity of IKKε
In short: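 His-tagged IKKε and TBK1 from Sf9 cells were assayed with myelin basic protein or casein and [γ33]ATP at 2×Km ATP (32 μM for IKKε, 60 μM for TBK1). Enzyme was 0.1 or 0.015 μg/ml for IKKε and 0.1 or 0.02 μg/ml for TBK1 (normal/sensitized). Reactions ran 30-45 min, were filter-captured, scintillation-counted, and normalized to DMSO after background subtraction.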

| SMILES | pIC50 |
| --- | --- |
| CN(C)C(=O)Nc1ccc(-c2ccnc(Nc3ccc(N4CCOCC4)cc3)n2)cc1C#N [Example 81, 3-[2-cyano-4-(2-{[4-(morpholin-4-yl)phenyl]amino}pyrimidin-4-yl)phenyl]-1,1-dimethylurea] | 6.30 to 7.30 |
| N#Cc1cc(-c2ccnc(Nc3ccc(N4CCOCC4)cc3)n2)ccc1OCCNC(=O)CO [Example 197, N-{2-[2-cyano-4-(2-{[4-(morpholin-4-yl)phenyl]amino}pyrimidin-4-yl)phenoxy]ethyl}-2-hydroxyacetamide] | 7.30 to 8.30 |
| CC(=O)N1CCCC(COc2ccc(-c3ccnc(Nc4ccc(N5CCOCC5)cc4)n3)cc2C#N)C1 (stereo not drawn) [Example 161] | 7.30 to 8.30 |
| COC1CN(C(C)c2ccc(Nc3nccc(-c4ccc(O[C@@H]5CCN(C(=O)CO)C5)c(C#N)c4)n3)cc2)C1 (stereo partly drawn) [compound 602] | 7.30 to 8.30 |
| COc1ccc(-c2ccnc(Nc3cccc(S(=O)(=O)NCCCO)c3)n2)cc1C#N [compound 306, 3-{[4-(3-Cyano-4-methoxyphenyl)pyrimidin-2-yl]amino}-N-(3-hydroxypropyl) benzenesulfonamide] | 6.30 to 7.30 |
| COc1ccc(-c2ccnc(Nc3cccc(N)c3)n2)cc1C#N [compound 321, 5-{2-[(3-Aminophenyl)amino]pyrimidin-4-yl}-2-methoxybenzonitrile] | 7.30 to 8.30 |
| N#Cc1cccc(-c2ccnc(Nc3ccc(OCC(=O)N4CCOCC4)cc3)n2)c1 [compound 386, 3-[2-({4-[2-(Morpholin-4-yl)-2-oxoethoxy]phenyl}amino)pyrimidin-4-yl]benzonitrile] | 6.30 to 7.30 |
| COc1ccc(Nc2nccc(-c3cccc(C#N)c3)n2)cc1OC [compound 352, 3-{2-[(3,4-Dimethoxyphenyl)amino]pyrimidin-4-yl}benzonitrile] | 7.30 to 8.30 |
| N#Cc1cc(-c2ccnc(Nc3ccc(N4CCOCC4)cc3)n2)ccc1OCC1CNC1 [Example 39, 2-(azetidin-3-ylmethoxy)-5-(2-{[4-(morpholin-4-yl)phenyl]amino}pyrimidin-4-yl)benzonitrile] | 7.30 to 8.30 |
| N#Cc1cc(-c2ccnc(Nc3cccc(F)c3)n2)ccc1O[C@@H]1CCN(C(=O)CO)C1 [compound 641, 5-{2-[(3-Fluorophenyl)amino]pyrimidin-4-yl}-2-{[(3R)-1-(hydroxyacetyl)pyrrolidin-3-yl]oxy}benzonitrile] | 7.30 to 8.30 |
| Cn1cc(-c2ccc(Nc3nccc(-c4ccc(OC5CCOCC5)c(C#N)c4)n3)cc2)cn1 [compound 584, 5-(2-{[4-(1-Methyl-1H-pyrazol-4-yl)phenyl]amino}pyrimidin-4-yl)-2-(tetrahydro-2H-pyran-4-yloxy)benzonitrile] | > 8.30 |
| CCN1CCN(c2ccc(-c3ccnc(Nc4ccc(N5CCNC(=O)C5)c(OC)c4)n3)cc2C#N)CC1 [Example 36, 2-(4-Ethylpiperazin-1-yl)-5-(2-{[3-methoxy-4-(3-oxopiperazin-1-yl)phenyl]amino}pyrimidin-4-yl)benzonitrile] | 6.30 to 7.30 |
| CC(=O)Nc1cccc(Nc2nccc(-c3ccc(OCc4ccccc4)c(C#N)c3)n2)c1 [Example 185, N-[3-({4-[4-(Benzyloxy)-3-cyanophenyl]pyrimidin-2-yl}amino)phenyl] acetamide] | 7.30 to 8.30 |
| COc1ccc(-c2ccnc(Nc3ccc(NC(=O)NC4CCCC4)cc3)n2)cc1C#N [Example 8, 1-(4-{[4-(3-Cyano-4-methoxyphenyl)pyrimidin-2-yl]amino}phenyl)-3-cyclopentylurea] | 6.30 to 7.30 |
| CN1CCN(CC(=O)N2CCC(Oc3ccc(-c4ccnc(Nc5ccc(N6CCOCC6)cc5)n4)cc3C#N)CC2)CC1 [Example 240, 2-({1-[(4-methylpiperazin-1-yl)acetyl]piperidin-4-yl}oxy)-5-(2-{[4-(morpholin-4-yl)phenyl]amino}pyrimidin-4-yl)benzonitrile] | 6.30 to 7.30 |
| COc1ccc(-c2ccnc(Nc3ccc(N4CCCC4C(=O)N(C)C)c(OC)c3)n2)cc1C#N (stereo not drawn) [Example 87] | 7.30 to 8.30 |
| N#Cc1cc(-c2ccnc(Nc3cccc(-n4ccnc4)c3)n2)ccc1OC1CCOCC1 [compound 560, 5-(2-{[3-(1H-Imidazol-1-yl)phenyl]amino}pyrimidin-4-yl)-2-(tetrahydro-2H-pyran-4-yloxy)benzonitrile] | > 8.30 |

| SMILES | pIC50 |
| --- | --- |
| N#Cc1cc(-c2ccnc(Nc3ccc(C#Cc4cccnc4)cc3)n2)ccc1OC1CCOCC1 [compound 605, 5-(2-{[4-(Pyridin-3-ylethynyl)phenyl]amino}pyrimidin-4-yl)-2-(tetrahydro-2H-pyran-4-yloxy)benzonitrile] | 7.30 to 8.30 |
| CC(C)C(=O)Nc1ccc(-c2ccnc(Nc3ccc(CCNCCO)cc3)n2)cc1C#N [compound 455, N-(2-cyano-4-{2-[(4-{2-[(2-hydroxyethyl)amino]ethyl}phenyl)amino]pyrimidin-4-yl}phenyl)-2-methylpropanamide] | 7.30 to 8.30 |
| CO[C@@H](C)C(=O)N1CCC(Oc2ccc(-c3ccnc(Nc4ccc(N5CCOCC5)cc4)n3)cc2C#N)CC1 [Example 99] | 7.30 to 8.30 |
| COc1cc(Nc2nccc(-c3ccc(OC)c(C#N)c3)n2)ccc1C [compound 325, 2-Methoxy-5-{2-[(3-methoxy-4-methylphenyl)amino]pyrimidin-4-yl}benzonitrile] | 6.30 to 7.30 |
| N#Cc1cc(-c2ccnc(Nc3ccc(N4CCOCC4)cc3)n2)ccc1NC(=O)N1CCOCC1 [Example 52, N-[2-cyano-4-(2-{[4-(morpholin-4-yl)phenyl]amino}pyrimidin-4-yl)phenyl]morpholin-4-carboxamide] | 6.30 to 7.30 |
| C[C@@H](O)C(=O)N1CCC(Oc2ccc(-c3ccnc(Nc4ccc(N5CCOCC5)cc4)n3)cc2C#N)C1 (stereo partly drawn) [Example 142, 2-({1-[(2R)-2-hydroxypropanoyl]pyrrolidin-3-yl}oxy)-5-(2-{[4-(morpholin-4-yl)phenyl]amino}pyrimidin-4-yl)benzonitrile] | 6.30 to 7.30 |
| CN(C)CCOc1ccc(-c2ccnc(Nc3ccc(N4CCOCC4)cc3)n2)cc1C#N [Example 58, 2-[2-(Dimethylamino)ethoxy]-5-(2-{[4-(morpholin-4-yl)phenyl]amino}pyrimidin-4-yl)benzonitrile] | 7.30 to 8.30 |
| CC(C)NC(=O)NCCOc1ccc(-c2ccnc(Nc3ccc(N4CCOCC4)cc3)n2)cc1C#N [Example 47, 1-{2-[2-cyano-4-(2-{[4-(morpholin-4-yl)phenyl]amino}pyrimidin-4-yl)phenoxy]ethyl}-3-propan-2-ylurea] | 7.30 to 8.30 |
| N#Cc1cc(-c2ccnc(Nc3cccc(NC(=O)N4CC(O)C4)c3)n2)ccc1OC1CCOCC1 [compound 598, N-[3-({4-[3-Cyano-4-(tetrahydro-2H-pyran-4-yloxy)phenyl]pyrimidin-2-yl}amino)phenyl]-3-hydroxyazetidin-1-carboxamide] | > 8.30 |
| N#Cc1cc(-c2ccnc(Nc3cccc(N4CCN(CCO)CC4)c3)n2)ccc1O[C@@H]1CCN(C(=O)CO)C1 [compound 604, 2-{[(3R)-1-(Hydroxyacetyl)pyrrolidin-3-yl]oxy}-5-[2-({3-[4-(2-hydroxyethyl)piperazin-1-yl]phenyl}amino)pyrimidin-4-yl]benzonitrile] | > 8.30 |
| N#Cc1cc(-c2ccnc(Nc3ccc(N4CCOCC4)cc3)n2)ccc1OC1CCN(CC(=O)N2CCOCC2)CC1 [Example 234, 2-({1-[2-(morpholin-4-yl)-2-oxoethyl]piperidin-4-yl}oxy)-5-(2-{[4-(morpholin-4-yl)phenyl]amino}pyrimidin-4-yl)benzonitrile] | 6.30 to 7.30 |
| CN1CCN(c2ccc(Nc3nccc(-c4cc(C#N)cc(OCc5ccccc5)c4)n3)cc2)CC1 [Example 244, 3-(Benzyloxy)-5-(2-{[4-(4-methylpiperazin-1-yl)phenyl]amino}pyrimidin-4-yl)benzonitrile] | 6.30 to 7.30 |
| CC(C)COC(=O)Nc1ccc(-c2ccnc(Nc3ccc(N4CCOCC4)cc3)n2)cc1C#N [Example 180, 2-methylpropyl [2-cyano-4-(2-{[4-(morpholin-4-yl)phenyl]amino}pyrimidin-4-yl)phenyl]carbamate] | 6.30 to 7.30 |
| CC(C)C[C@H](O)C(=O)N1CCC(Oc2ccc(-c3ccnc(Nc4ccc(N5CCOCC5)cc4)n3)cc2C#N)CC1 [Example 229, 2-({1-[(2S)-2-hydroxy-4-methylpentanoyl]piperidin-4-yl}oxy)-5-(2-{[4-(morpholin-4-yl)phenyl]amino}pyrimidin-4-yl)benzonitrile] | 7.30 to 8.30 |
| CC(C)C(=O)Nc1ccc(-c2ccnc(Nc3ccc(OCCCN4CCOCC4)cc3)n2)cc1C#N [compound 430, N-{2-cyano-4-[2-({4-[3-(morpholin-4-yl)propoxy]phenyl}amino)pyrimidin-4-yl]phenyl}-2-methylpropanamide] | 7.30 to 8.30 |
| COc1ccc(-c2ccnc(Nc3cccc(NC(=O)NC4CCCC4)c3)n2)cc1C#N [compound 348, 1-(3-{[4-(3-Cyano-4-methoxyphenyl)pyrimidin-2-yl]amino}phenyl)-3-cyclopentylurea] | 6.30 to 7.30 |
